{"source": "ChEMBL document CHEMBL1159276", "about": "“Sinugibberol, a new cytotoxic cembranoid diterpene from the soft coral Sinularia gibberosa” (1995)", "key": {"P388": {"system": "P388", "assay": "Cytotoxicity against mouse P388 cells by MTT method", "type": "functional", "conditions": "read-out: ED50 (the source's name)"}, "HT-29": {"system": "HT-29", "assay": "Cytotoxicity against human HT-29 cells after 6 days by MTT method", "type": "functional", "conditions": "HT-29, 144 h, read-out: ED50 (the source's name)"}}}
{"smiles": "C/C1=C\\CC[C@@]2(C)O[C@@H]2/C=C(/C(C)(C)O)CC[C@@]2(C)O[C@@H]2CC1", "note": "[SINUGIBBEROL]", "values": [{"measurement": "EC50", "setting": "P388", "result": 11.7, "unit": "µg/mL"}, {"measurement": "EC50", "setting": "HT-29", "result": 0.5, "unit": "µg/mL"}]}
